{
  "source": "patent US4272437A",
  "about": "“Antibacterial agents, and 4-thio azetidinone intermediates” (priority 1979, dated 1981)",
  "key": {"Str. pneumoniae A-9585": {"system": "Str. pneumoniae A-9585", "assay": "MIC, tube dilution, Streptococcus pneumoniae A9585", "type": "cell-based", "settings": "overnight 37° C., Nutrient Broth", "description": "(§1) Representative compounds of the present invention were subjected to in vitro antibiotic screening against a variety of microorganisms."}, "Str. pyogenes A-9604": {"system": "Str. pyogenes A-9604", "assay": "MIC, tube dilution, Streptococcus pyogenes A9604", "type": "cell-based", "settings": "overnight 37° C., Nutrient Broth", "description": "as §1"}, "Staph. aureus A-9537": {"system": "Staph. aureus A-9537", "assay": "MIC, tube dilution, Staphylococcus aureus A9537", "type": "cell-based", "settings": "overnight 37° C., Nutrient Broth", "description": "as §1"}, "[1]": {"system": "Staph. aureus A-9537 and 50% serum", "assay": "MIC, tube dilution, Staph. aureus A9537 + 50% serum", "type": "cell-based, Staphylococcus aureus", "settings": "overnight 37° C.", "description": "as §1"}, "[2]": {"system": "Staph. aureus (Pen-Res) A-9606", "assay": "MIC, tube dilution, Staphylococcus aureus A9606 (Pen-Res)", "type": "cell-based", "settings": "Staph. aureus A9606 (Pen-Res), overnight 37° C.", "description": "as §1"}, "[3]": {"system": "Staph. aureus (Meth-Res) A-15097", "assay": "MIC, tube dilution, Staphylococcus aureus A15097 (Meth-Res)", "type": "cell-based", "settings": "Staph. aureus A15097 (Meth-Res), overnight 37° C.", "description": "as §1"}, "Str. faecalis A-20688": {"system": "Str. faecalis A-20688", "assay": "MIC, tube dilution, Streptococcus faecalis A20688", "type": "cell-based", "settings": "overnight 37° C.", "description": "as §1"}, "E. coli A-15119": {"system": "E. coli A-15119", "assay": "MIC, tube dilution, Escherichia coli A15119", "type": "cell-based", "settings": "overnight 37° C.", "description": "as §1"}, "E. coli A-20341-1": {"system": "E. coli A-20341-1", "assay": "MIC, tube dilution, Escherichia coli A20341-1", "type": "cell-based", "settings": "overnight 37° C.", "description": "as §1"}, "K. pneumoniae A-15130": {"system": "K. pneumoniae A-15130", "assay": "MIC, tube dilution, Klebsiella pneumoniae A15130", "type": "cell-based", "settings": "overnight 37° C.", "description": "as §1"}, "[4]": {"system": "Klebsiella species A20468", "assay": "MIC, tube dilution, Klebsiella species A20468", "type": "cell-based", "settings": "Klebsiella species (K. pneumoniae) A20468, overnight 37° C.", "description": "as §1"}, "Pr. mirabilis A-9900": {"system": "Pr. mirabilis A-9900", "assay": "MIC, tube dilution, Proteus mirabilis A9900", "type": "cell-based", "settings": "overnight 37° C.", "description": "as §1"}, "Pr. morganii A-15153": {"system": "Pr. morganii A-15153", "assay": "MIC, tube dilution, Proteus morganii A15153", "type": "cell-based", "settings": "overnight 37° C.", "description": "as §1"}, "Ser. marcescens A-20019": {"system": "Ser. marcescens A-20019", "assay": "MIC, tube dilution, Serratia marcescens A20019", "type": "cell-based", "settings": "overnight 37° C.", "description": "as §1"}, "Ent. cloacae A-9659": {"system": "Ent. cloacae A-9659", "assay": "MIC, tube dilution, Enterobacter cloacae A9659", "type": "cell-based", "settings": "overnight 37° C.", "description": "as §1"}, "Ent. cloacae A-9656": {"system": "Ent. cloacae A-9656", "assay": "MIC, tube dilution, Enterobacter cloacae A9656", "type": "cell-based", "settings": "overnight 37° C.", "description": "as §1"}, "Ps. aeruginosa A-9843A": {"system": "Ps. aeruginosa A-9843A", "assay": "MIC, tube dilution, Pseudomonas aeruginosa A9843A", "type": "cell-based", "settings": "overnight 37° C.", "description": "as §1"}, "Ps. aeruginosa A-21213": {"system": "Ps. aeruginosa A-21213", "assay": "MIC, tube dilution, Pseudomonas aeruginosa A21213", "type": "cell-based", "settings": "Pseudomonas aeruginosa A21213, overnight 37° C.", "description": "as §1"}, "Proteus rettgeri A21203": {"system": "Proteus rettgeri A21203", "assay": "MIC, tube dilution, Proteus rettgeri A21203", "type": "cell-based", "settings": "overnight 37° C.", "description": "as §1"}, "Proteus vulgaris A9555": {"system": "Proteus vulgaris A9555", "assay": "MIC, tube dilution, Proteus vulgaris (mirabilis) A9555", "type": "cell-based", "settings": "overnight 37° C.", "description": "as §1"}, "[5]": {"settings": "Staphylococcus aureus, read-out: Minimum Inhibitory Concentration (M.I.C.)"}, "[6]": {"settings": "read-out: Minimum Inhibitory Concentration (M.I.C.)"}},
  "note": "Where a name gives a salt, the structure may show the parent alone.",
  "data": [
    {"smiles": "COP(=O)(CCC1=C(C(=O)O)N2C(=O)CC2S1)OC", "note": "(stereo not shown) [Example 57]", "values": [
      {"measurement": "Minimum Inhibitory Concentration (M.I.C.)", "setting": "Str. pneumoniae A-9585; Str. pneumoniae A9585", "result": ".06 µg/mL"},
      {"measurement": "Minimum Inhibitory Concentration (M.I.C.)", "setting": "Str. pyogenes A-9604; Str. pyogenes A9604", "result": ".13 µg/mL"},
      {"measurement": "Minimum Inhibitory Concentration (M.I.C.)", "setting": "Staph. aureus A-9537; Staph. aureus A9537", "result": 1, "unit": "µg/mL"},
      {"measurement": "Minimum Inhibitory Concentration (M.I.C.)", "setting": "[1]", "result": 16, "unit": "µg/mL"},
      {"measurement": "Minimum Inhibitory Concentration (M.I.C.)", "setting": "[2]", "result": 125, "unit": "µg/mL"},
      {"measurement": "Minimum Inhibitory Concentration (M.I.C.)", "setting": "[3]", "result": "> 125", "unit": "µg/mL"},
      {"measurement": "Minimum Inhibitory Concentration (M.I.C.)", "setting": "Str. faecalis A-20688; Str. faecalis A20688", "result": 125, "unit": "µg/mL"},
      {"measurement": "Minimum Inhibitory Concentration (M.I.C.)", "setting": "E. coli A-15119; E. coli A15119", "result": 16, "unit": "µg/mL"},
      {"measurement": "Minimum Inhibitory Concentration (M.I.C.)", "setting": "E. coli A-20341-1; E. coli A20341-1", "result": "> 125", "unit": "µg/mL"},
      {"measurement": "Minimum Inhibitory Concentration (M.I.C.)", "setting": "K. pneumoniae A-15130; K. pneumoniae A15130", "result": 125, "unit": "µg/mL"},
      {"measurement": "Minimum Inhibitory Concentration (M.I.C.)", "setting": "[4]", "result": "> 125", "unit": "µg/mL"},
      {"measurement": "Minimum Inhibitory Concentration (M.I.C.)", "setting": "Pr. mirabilis A-9900; Proteus mirabilis A9900", "result": 8, "unit": "µg/mL"},
      {"measurement": "Minimum Inhibitory Concentration (M.I.C.)", "setting": "Pr. morganii A-15153; Proteus morganii A15153", "result": 32, "unit": "µg/mL"},
      {"measurement": "Minimum Inhibitory Concentration (M.I.C.)", "setting": "Ser. marcescens A-20019; Serratia marcescens A20019", "result": 63, "unit": "µg/mL"},
      {"measurement": "Minimum Inhibitory Concentration (M.I.C.)", "setting": "Ent. cloacae A-9659; Enterobacter cloacae A9659", "result": 125, "unit": "µg/mL"},
      {"measurement": "Minimum Inhibitory Concentration (M.I.C.)", "setting": "Ent. cloacae A-9656; Enterobacter cloacae A9656", "result": 63, "unit": "µg/mL"},
      {"measurement": "Minimum Inhibitory Concentration (M.I.C.)", "setting": "Ps. aeruginosa A-9843A; Pseudomonas aeruginosa A9843A", "result": 125, "unit": "µg/mL"},
      {"measurement": "Minimum Inhibitory Concentration (M.I.C.)", "setting": "Ps. aeruginosa A-21213", "result": 125, "unit": "µg/mL"},
      {"measurement": "Minimum Inhibitory Concentration (M.I.C.)", "setting": "Proteus rettgeri A21203; Proteus rettgeri A21203", "result": 16, "unit": "µg/mL"},
      {"measurement": "Minimum Inhibitory Concentration (M.I.C.)", "setting": "Proteus vulgaris A9555", "result": 63, "unit": "µg/mL"}
    ]},
    {"smiles": "CC1=C(C(=O)O)N2C(=O)[C@@H]([C@@H](C)O)[C@H]2S1", "note": "(relative stereo) [Example 34, cis 6-(1'-Hydroxy-1'-ethyl)-2-methylpenem-3-carboxylic Acid, Sodium Salt (isomer \"D\")]", "values": [
      {"measurement": "MIC", "setting": "Str. pneumoniae A-9585; Streptococcus pneumoniae, A9585, Str. pneumoniae A9585, read-out: Minimum Inhibitory Concentration (M.I.C.)", "result": 0.25, "unit": "µg/mL"},
      {"measurement": "MIC", "setting": "Str. pyogenes A-9604; Streptococcus pyogenes, A9604, Str. pyogenes A9604, read-out: Minimum Inhibitory Concentration (M.I.C.)", "result": 2, "unit": "µg/mL"},
      {"measurement": "MIC", "setting": "Staph. aureus A-9537; Staphylococcus aureus, A9537, Staph. aureus A9537, read-out: Minimum Inhibitory Concentration (M.I.C.)", "result": 4, "unit": "µg/mL"},
      {"measurement": "MIC", "setting": "[1]; [5]", "result": 63, "unit": "µg/mL"},
      {"measurement": "MIC", "setting": "[2]; [5]", "result": 4, "unit": "µg/mL"},
      {"measurement": "MIC", "setting": "[3]; [5]", "result": 16, "unit": "µg/mL"},
      {"measurement": "MIC", "setting": "Str. faecalis A-20688; Enterococcus faecalis, A20688, Str. faecalis A20688, read-out: Minimum Inhibitory Concentration (M.I.C.)", "result": 125, "unit": "µg/mL"},
      {"measurement": "MIC", "setting": "E. coli A-15119; Escherichia coli, A15119, E. coli A15119, read-out: Minimum Inhibitory Concentration (M.I.C.)", "result": 4, "unit": "µg/mL"},
      {"measurement": "MIC", "setting": "E. coli A-20341-1; Escherichia coli, A203411, E. coli A20341-1, read-out: Minimum Inhibitory Concentration (M.I.C.)", "result": 16, "unit": "µg/mL"},
      {"measurement": "MIC", "setting": "K. pneumoniae A-15130; Klebsiella pneumoniae, A15130, K. pneumoniae A15130, read-out: Minimum Inhibitory Concentration (M.I.C.)", "result": 32, "unit": "µg/mL"},
      {"measurement": "MIC", "setting": "[4]; [6]", "result": 125, "unit": "µg/mL"},
      {"measurement": "MIC", "setting": "Pr. mirabilis A-9900; Proteus mirabilis, A9900, Proteus mirabilis A9900, read-out: Minimum Inhibitory Concentration (M.I.C.)", "result": 16, "unit": "µg/mL"},
      {"measurement": "MIC", "setting": "Pr. morganii A-15153; Morganella morganii, A15153, Proteus morganii A15153, read-out: Minimum Inhibitory Concentration (M.I.C.)", "result": 32, "unit": "µg/mL"},
      {"measurement": "MIC", "setting": "Ser. marcescens A-20019; Serratia marcescens, A20019, Serratia marcescens A20019, read-out: Minimum Inhibitory Concentration (M.I.C.)", "result": 32, "unit": "µg/mL"},
      {"measurement": "MIC", "setting": "Ent. cloacae A-9659; Enterobacter cloacae, A9659, Enterobacter cloacae A9659, read-out: Minimum Inhibitory Concentration (M.I.C.)", "result": 32, "unit": "µg/mL"},
      {"measurement": "MIC", "setting": "Ent. cloacae A-9656; Enterobacter cloacae, A9656, Enterobacter cloacae A9656, read-out: Minimum Inhibitory Concentration (M.I.C.)", "result": 63, "unit": "µg/mL"},
      {"measurement": "MIC", "setting": "Ps. aeruginosa A-9843A; Pseudomonas aeruginosa, A9843A, read-out: Minimum Inhibitory Concentration (M.I.C.), Pseudomonas aeruginosa A9843A", "result": 125, "unit": "µg/mL"},
      {"measurement": "MIC", "setting": "Ps. aeruginosa A-21213; [6]", "result": 125, "unit": "µg/mL"},
      {"measurement": "MIC", "setting": "Proteus rettgeri A21203; Providencia rettgeri, A21203, Proteus rettgeri A21203, read-out: Minimum Inhibitory Concentration (M.I.C.)", "result": 32, "unit": "µg/mL"},
      {"measurement": "MIC", "setting": "Proteus vulgaris A9555; [6]", "result": 16, "unit": "µg/mL"}
    ]}
  ]
}
